Results from patent publication US20250145594A1, “MODULATORS OF THE INTEGRATED STRESS PATHWAY” (Calico Life Sciences LLC, priority 2020, published 2025).

Test system: ATF4 luciferase reporter in HEK293T cells
Assay: ATF4-Luc assay (in vitro model of VWMD)
Assay type: cell-based, human
Details: Homo sapiens, HEK-293T, 7 h, HEK293T cells carrying the ATF4 luciferase reporter, 1 μg/mL tunicamycin, One Glo luminescence
How it was run: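 Stable HEK293T line expressing firefly luciferase behind the human ATF4 5′-UTR, treated with 1 μg/mL tunicamycin plus compound for 7 hours. Luminescence read with One Glo; EC50 determined.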

Q: For `O=C(CO[C@H]1C[C@@H](OC(F)(F)F)C1)NC12CCC(NC(=O)[C@H]3C[C@@H](O)c4cc(C(F)(F)F)ccc4O3)(CC1)[C@@H](O)C2` [Compound 489, (2R,4R)-4-hydroxy-N-[(2S)-2-hydroxy-4-(2-{[(1s,3R)-3-(trifluoromethoxy)cyclobutyl]oxy}acetamido)bicyclo[2.2.2]octan-1-yl]-6-(trifluoromethyl)-3,4-dihydro-2H-1-benzopyran-2-carboxamide], which EC50 is on record?
A: The EC50 was under 10 nM.

Q: With `O=C(NCc1ccc(C(F)(F)F)cn1)[C@H]1C[C@H]2O[C@@H]1CC2NC(=O)[C@H]1C[C@@H](O)c2cc(Cl)ccc2O1` (mixture of isomers) [Compound 313, (2R,4R)-6-chloro-4-hydroxy-N-[(1RS,2SR,4RS,5SR)-5-({[5-(trifluoromethyl)pyridin-2-yl]methyl}carbamoyl)-7-oxabicyclo[2.2.1]heptan-2-yl]-3,4-dihydro-2H-1-benzopyran-2-carboxamide] as the molecule, how does the EC50 read?
A: Its EC50 is 250 to 500 nM.

Q: How did the EC50 turn out when `O=C(NC12CC(n3cc(-c4ccn(CC(F)(F)F)c4)cn3)(C1)C2)[C@H]1C[C@@H](O)c2cc(Cl)ccc2O1` [Compound 547, (2R,4R)-6-chloro-4-hydroxy-N-(3-{4-[1-(2,2,2-trifluoroethyl)-1H-pyrrol-3-yl]-1H-pyrazol-1-yl}bicyclo[1.1.1]pentan-1-yl)-3,4-dihydro-2H-1-benzopyran-2-carboxamide] was run?
A: Its EC50 is under 10 nM.

Q: `O=C(NC12CCC(n3cc(-c4ccc(C(F)(F)F)cn4)cn3)(C1)C2)[C@H]1C[C@@H](O)c2cc(Cl)c(F)cc2O1` [Compound 627, (2R,4R)-6-chloro-7-fluoro-4-hydroxy-N-(4-{4-[5-(trifluoromethyl)pyridin-2-yl]-1H-pyrazol-1-yl}bicyclo[2.1.1]hexan-1-yl)-3,4-dihydro-2H-1-benzopyran-2-carboxamide] was tested. Which EC50 did it give?
A: Its EC50 is under 10 nM.

Q: How did the EC50 turn out when `COc1ccc2nn(C34CC(NC(=O)[C@H]5C[C@@H](O)c6cc(Cl)c(F)cc6O5)(C3)C4)cc2n1` [Compound 506, (2R,4R)-6-chloro-7-fluoro-4-hydroxy-N-[3-(5-methoxy-2H-pyrazolo[4,3-b]pyridin-2-yl)bicyclo[1.1.1]pentan-1-yl]-3,4-dihydro-2H-1-benzopyran-2-carboxamide] was run?
A: The EC50 was under 10 nM.

Q: Which EC50 does the source give for `O=C(NC12CC(n3ccc([C@H]4C[C@@H](OC(F)(F)F)C4)n3)(C1)C2)[C@H]1C[C@@H](O)c2cc(Cl)ccc2O1` [Compound 314, (2R,4R)-6-chloro-4-hydroxy-N-(3-{3-[cis-3-(trifluoromethoxy)cyclobutyl]-1H-pyrazol-1-yl}bicyclo[1.1.1]pentan-1-yl)-3,4-dihydro-2H-1-benzopyran-2-carboxamide] here?
A: Its EC50 is 50 to 250 nM.

Q: With `O=C(NC12CC(n3cc(N4CC[C@@H](OC(F)(F)F)C4)cn3)(C1)C2)[C@H]1C[C@@H](O)c2cc(Cl)ccc2O1` [Compound 356, (2R,4R)-6-chloro-4-hydroxy-N-(3-{4-[(3R)-3-(trifluoromethoxy)pyrrolidin-1-yl]-1H-pyrazol-1-yl}bicyclo[1.1.1]pentan-1-yl)-3,4-dihydro-2H-1-benzopyran-2-carboxamide] as the molecule, how does the EC50 read?
A: The EC50 was under 10 nM.

Q: Which EC50 does the source give for `O=C(COc1ccc(Cl)c(F)c1)N[C@H]1CC[C@H](n2cc(-c3ccc(C(F)(F)F)cn3)cn2)CC1` [Compound 598, 2-(4-chloro-3-fluorophenoxy)-N-[(1r,4r)-4-(4-[5-(trifluoromethyl)pyridin-2-yl]-1H-pyrazol-1-yl)cyclohexyl]acetamide] here?
A: The EC50 was under 10 nM.

Q: With `O=C(NC12CC(n3cc(C(=O)N4CC[C@H](OC(F)(F)F)C4)cn3)(C1)C2)[C@@H]1C[C@@H](O)c2cc(C(F)(F)F)ccc2O1` [Compound 378, (2S,4R)-4-hydroxy-N-(3-{4-[(3S)-3-(trifluoromethoxy)pyrrolidine-1-carbonyl]-1H-pyrazol-1-yl}bicyclo[1.1.1]pentan-1-yl)-6-(trifluoromethyl)-3,4-dihydro-2H-1-benzopyran-2-carboxamide] as the molecule, how does the EC50 read?
A: The EC50 was under 10 nM.

Q: `O=C(N[C@H]1CC[C@H](n2cc(OCCCOC(F)(F)F)cn2)CC1)[C@H]1C[C@@H](O)c2cc(Cl)ccc2O1` [Compound 423, (2R,4R)-6-chloro-4-hydroxy-N-[(1r,4R)-4-{4-[3-(trifluoromethoxy)propoxy]-1H-pyrazol-1-yl}cyclohexyl]-3,4-dihydro-2H-1-benzopyran-2-carboxamide] was tested. Which EC50 did it give?
A: The EC50 was under 10 nM.

Q: With `COCc1ccc2nn(C34CC(NC(=O)[C@H]5C[C@@H](O)c6cc(Cl)ccc6O5)(C3)C4)cc2c1` [Compound 510, (2R,4R)-6-chloro-4-hydroxy-N-{3-[5-(methoxymethyl)-2H-indazol-2-yl]bicyclo[1.1.1]pentan-1-yl}-3,4-dihydro-2H-1-benzopyran-2-carboxamide] as the molecule, how does the EC50 read?
A: Its EC50 is 10 to 50 nM.

Q: For `O=C(NC12CC(n3cc(NCCOC(F)(F)F)cn3)(C1)C2)[C@H]1C[C@@H](O)c2cc(Cl)ccc2O1` [Compound 437, (2R,4R)-6-chloro-4-hydroxy-N-[3-(4-{[2-(trifluoromethoxy)ethyl]amino}-1H-pyrazol-1-yl)bicyclo[1.1.1]pentan-1-yl]-3,4-dihydro-2H-1-benzopyran-2-carboxamide], which EC50 is on record?
A: Its EC50 is 10 to 50 nM.

Q: For `O=C(NC12CC(OCC(=O)N3CCC(OC(F)(F)F)C3)(C1)C2)[C@H]1C[C@@H](O)c2cc(Cl)ccc2O1` (stereo partly drawn) [Compound 334, (2R,4R)-6-chloro-4-hydroxy-N-(3-{2-oxo-2-[3-(trifluoromethoxy)pyrrolidin-1-yl]ethoxy}bicyclo[1.1.1]pentan-1-yl)-3,4-dihydro-2H-1-benzopyran-2-carboxamide], which EC50 is on record?
A: The EC50 was 50 to 250 nM.

Q: `O=C(NC12CC(n3cc(-c4cnn(C(F)(F)F)c4)cn3)(C1)C2)[C@H]1C[C@@H](O)c2cc(Cl)c(F)cc2O1` [Compound 479, (2R,4R)-6-chloro-7-fluoro-4-hydroxy-N-{3-[1′-(trifluoromethyl)-1H,1′H-[4,4′-bipyrazol]-1-yl]bicyclo[1.1.1]pentan-1-yl}-3,4-dihydro-2H-1-benzopyran-2-carboxamide] was tested. Which EC50 did it give?
A: Its EC50 is under 10 nM.

Q: Which EC50 does the source give for `O=C(COc1ccc(Cl)c(F)c1)NC12CC(n3cc(CCCOC(F)(F)F)cn3)(C1)C2` [Compound 613, 2-(4-chloro-3-fluorophenoxy)-N-(3-{4-[3-(trifluoromethoxy)propyl]-1H-pyrazol-1-yl}bicyclo[1.1.1]pentan-1-yl)acetamide] here?
A: Its EC50 is 10 to 50 nM.

Q: For `O=C(NC12CC(OCC(=O)N3CC(COC(F)(F)F)C3)(C1)C2)[C@H]1C[C@@H](O)c2cc(Cl)ccc2O1` [Compound 335, (2R,4R)-6-chloro-4-hydroxy-N-[3-(2-oxo-2-{3-[(trifluoromethoxy)methyl]azetidin-1-yl}ethoxy)bicyclo[1.1.1]pentan-1-yl]-3,4-dihydro-2H-1-benzopyran-2-carboxamide], which EC50 is on record?
A: Its EC50 is 50 to 250 nM.

Q: With `O=C(NC12CC(n3cc4cc(COCC(F)(F)F)ccc4n3)(C1)C2)[C@H]1C[C@@H](O)c2cc(Cl)ccc2O1` [Compound 650, (2R,4R)-6-chloro-4-hydroxy-N-(3-{5-[(2,2,2-trifluoroethoxy)methyl]-2H-indazol-2-yl}bicyclo[1.1.1]pentan-1-yl)-3,4-dihydro-2H-1-benzopyran-2-carboxamide] as the molecule, how does the EC50 read?
A: The EC50 was under 10 nM.

Q: How did the EC50 turn out when `O=C(CO[C@H]1C[C@@H](OC(F)(F)F)C1)NC12CC(NC(=O)[C@H]3C[C@@H](O)c4cc(Cl)c(Cl)cc4O3)(C1)C2` [Compound 494, (2R,4R)-6,7-dichloro-4-hydroxy-N-[3-(2-{[(1s,3S)-3-(trifluoromethoxy)cyclobutyl]oxy}acetamido)bicyclo[1.1.1]pentan-1-yl]-3,4-dihydro-2H-1-benzopyran-2-carboxamide] was run?
A: The EC50 was under 10 nM.

Q: `O=C(NC12CC(n3cc(OCCCC(F)(F)F)cn3)(C1)C2)[C@H]1CC(O)c2cc(Cl)c(F)cc2O1` (stereo in doubt) [Compound 464, (2R,4R)-6-chloro-7-fluoro-4-hydroxy-N-{3-[4-(4,4,4-trifluorobutoxy)-1H-pyrazol-1-yl]bicyclo[1.1.1]pentan-1-yl}-3,4-dihydro-2H-1-benzopyran-2-carboxamide] was tested. Which EC50 did it give?
A: Its EC50 is under 10 nM.

Q: For `O=C(CO[C@H]1C[C@@H](OC(F)(F)F)C1)NC12CCC(NC(=O)[C@H]3C[C@@H](O)c4cc(C(F)(F)F)ccc4O3)(CC1)C[C@@H]2O` [Compound 460, (2R,4R)-4-hydroxy-N-[(3S)-3-hydroxy-4-(2-{[(1s,3R)-3-(trifluoromethoxy)cyclobutyl]oxy}acetamido)bicyclo[2.2.2]octan-1-yl]-6-(trifluoromethyl)-3,4-dihydro-2H-1-benzopyran-2-carboxamide], which EC50 is on record?
A: Its EC50 is under 10 nM.

Q: For `O=C(COc1cc(F)c(Cl)c(Br)c1)N[C@H]1C[C@H]2C[C@@H]1C[C@@H]2NC(=O)CO[C@H]1C[C@@H](OC(F)(F)F)C1` [Compound 381, 2-(3-bromo-4-chloro-5-fluorophenoxy)-N-[(1R,2S,4R,5S)-5-(2-{[cis-3-(trifluoromethoxy)cyclobutyl]oxy}acetamido)bicyclo[2.2.1]heptan-2-yl]acetamide], which EC50 is on record?
A: Its EC50 is 10 to 50 nM.

Q: How did the EC50 turn out when `O=C(NC12CC(n3cc(C4CC(OC(F)(F)F)C4)nn3)(C1)C2)[C@H]1C[C@@H](O)c2cc(C(F)(F)F)ccc2O1` (stereo partly drawn) [Compound 470, (2R,4R)-4-hydroxy-N-(3-{4-[(1s,3S)-3-(trifluoromethoxy)cyclobutyl]-1H-1,2,3-triazol-1-yl}bicyclo[1.1.1]pentan-1-yl)-6-(trifluoromethyl)-3,4-dihydro-2H-1-benzopyran-2-carboxamide] was run?
A: The EC50 was under 10 nM.

Q: How did the EC50 turn out when `O=C(CO[C@H]1C[C@@H](OC(F)(F)F)C1)NC12CC(NC(=O)[C@@H]3C[C@@H](O)c4cc(Cl)ccc4O3)(C1)C2` [Compound 208, (2S,4R)-6-chloro-4-hydroxy-N-[3-(2-{[cis-3-(trifluoromethoxy)cyclobutyl]oxy}acetamido)bicyclo[1.1.1]pentan-1-yl]-3,4-dihydro-2H-1-benzopyran-2-carboxamide] was run?
A: Its EC50 is under 10 nM.

Q: With `O=C(NC12CC(n3cc(-c4ccc(OC(F)(F)F)cn4)cn3)(C1)C2)[C@@H]1C[C@@H](O)c2cc(Cl)c(F)cc2O1` [Compound 474, (2S,4R)-6-chloro-7-fluoro-4-hydroxy-N-(3-{4-[5-(trifluoromethoxy)pyridin-2-yl]-1H-pyrazol-1-yl}bicyclo[1.1.1]pentan-1-yl)-3,4-dihydro-2H-1-benzopyran-2-carboxamide] as the molecule, how does the EC50 read?
A: Its EC50 is under 10 nM.
